# Results from the supplement of paper PMC10307832.
# Legend:
# Assay in all cases: relative viability (nuclei count vs DMSO), 5 days (fraction); higher = more cells survive
# [1] = compound: C1COCCN1C2=NC(=NC3=C2OC4=C3C=CC=N4)C5=CC(=CC=C5)NC(=O)C6=CN=C(C=C6)N + CS(=O)(=O)CCNCc1ccc(-c2ccc3ncnc(Nc4ccc(OCc5cccc(F)c5)c(Cl)c4)c3c2)o1 [Lapatinib] (partner 2 µM)
# Procedure, shortened: (§1)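 Medians of duplicate plates are given as relative viability. That measure is the nuclei count in treated wells divided by the count in vehicle wells. Counts were taken on 4× images of lung cancer cell lines in 1536-well plates, 5 days after pin-tool dosing the day after seeding with one drug alone or a fixed anchor-drug dose plus five library-drug doses (not always all listed) in √10 steps.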
# Entinostat + Trametinib = compound: Nc1ccccc1NC(=O)c1ccc(CNC(=O)OCc2cccnc2)cc1 [Entinostat] + CC(=O)Nc1cccc(-n2c(=O)n(C3CC3)c(=O)c3c(Nc4ccc(I)cc4F)n(C)c(=O)c(C)c32)c1 [Trametinib] (partner 0.02 µM)
# Procedure, shortened: as §1
# Entinostat + Palbociclib = compound: Nc1ccccc1NC(=O)c1ccc(CNC(=O)OCc2cccnc2)cc1 [Entinostat] + CC(=O)c1c(C)c2cnc(Nc3ccc(N4CCNCC4)cn3)nc2n(C2CCCC2)c1=O [Palbociclib] (partner 0.5 µM)
# Procedure, shortened: as §1
# Entinostat + Crizotinib = compound: Nc1ccccc1NC(=O)c1ccc(CNC(=O)OCc2cccnc2)cc1 [Entinostat] + C[C@@H](Oc1cc(-c2cnn(C3CCNCC3)c2)cnc1N)c1c(Cl)ccc(F)c1Cl [Crizotinib] (partner 1 µM)
# Procedure, shortened: as §1
Cell Line,relative viability ([1]; first compound 0.02 µM),relative viability ([1]; first compound 0.06325 µM),relative viability ([1]; first compound 0.2 µM),relative viability ([1]; first compound 0.6325 µM),relative viability ([1]; first compound 2 µM),relative viability (Entinostat + Trametinib; first compound 0.02 µM),relative viability (Entinostat + Trametinib; first compound 0.06325 µM),relative viability (Entinostat + Trametinib; first compound 0.2 µM),relative viability (Entinostat + Trametinib; first compound 0.6325 µM),relative viability (Entinostat + Trametinib; first compound 2 µM),relative viability (Entinostat + Palbociclib; first compound 0.02 µM),relative viability (Entinostat + Palbociclib; first compound 0.06325 µM),relative viability (Entinostat + Palbociclib; first compound 0.2 µM),relative viability (Entinostat + Palbociclib; first compound 0.6325 µM),relative viability (Entinostat + Palbociclib; first compound 2 µM),relative viability (Entinostat + Crizotinib; first compound 0.02 µM),relative viability (Entinostat + Crizotinib; first compound 0.06325 µM),relative viability (Entinostat + Crizotinib; first compound 0.2 µM),relative viability (Entinostat + Crizotinib; first compound 0.6325 µM),relative viability (Entinostat + Crizotinib; first compound 2 µM)
SK-MES-1,0.455,0.492,0.431,0.424,0.312,0.553,0.693,0.865,0.83,0.512,0.31,0.395,0.394,0.43,0.422,0.984,1.03,1.09,0.955,0.67
NCI-H3122,0.958,1.08,1.04,1.07,0.88,0.265,0.259,0.27,0.208,0.212,0.191,0.217,0.208,0.181,0.187,0.28,0.265,0.319,0.313,0.334
NCI-H2085,0.77,0.771,0.744,0.726,0.65,0.552,0.765,0.508,0.499,0.408,0.438,0.441,0.43,0.4,0.421,0.991,0.933,0.769,0.57,0.414
PC-14,0.308,0.391,0.307,0.283,0.249,0.653,0.61,0.502,0.145,0.0754,0.521,0.493,0.449,0.157,0.0723,0.849,0.928,0.916,0.37,0.159
NCI-H1355,0.95,1.01,0.997,0.936,0.814,0.443,0.402,0.337,0.344,0.243,0.416,0.417,0.332,0.328,0.25,1.06,1.01,0.9,0.743,0.599
NCI-H1650,0.791,0.792,0.7,0.775,0.613,0.594,0.585,0.507,0.372,0.376,0.352,0.299,0.334,0.283,0.162,0.923,0.928,0.988,0.729,0.359
NCI-H727,0.829,0.753,0.742,0.722,0.686,0.368,0.365,0.347,0.331,0.273,0.596,0.702,0.628,0.657,0.649,0.765,0.731,0.693,0.628,0.342
NCI-H1755,1.09,1.12,1.05,1.02,0.653,0.721,0.751,0.605,0.565,0.44,0.439,0.454,0.446,0.407,0.342,0.832,0.827,0.771,0.462,0.347
NCI-H1651,0.975,0.839,0.786,0.84,0.614,0.931,0.844,0.844,0.745,0.606,0.549,0.535,0.617,0.533,0.45,0.877,0.9,0.878,0.807,0.721
NCI-H647,1.11,1.22,0.965,0.868,0.275,0.48,0.398,0.525,0.322,0.133,0.318,0.343,0.337,0.0924,0.0625,1.1,0.966,0.749,0.301,0.102
NCI-H1944,0.802,0.864,0.753,0.876,0.859,0.387,0.43,0.333,0.265,0.232,0.301,0.286,0.234,0.223,0.176,0.971,0.756,0.629,0.344,0.249
LK-2,1.14,1.11,0.828,0.776,0.563,0.778,0.686,0.652,0.447,0.349,0.77,0.673,0.651,0.496,0.211,0.252,0.234,0.227,0.255,0.248
HCC-15,0.865,0.883,0.811,0.818,0.511,0.392,0.323,0.245,0.221,0.161,0.734,0.674,0.572,0.454,0.273,0.792,0.744,0.745,0.548,0.307
NCI-H838,0.725,1.06,0.895,0.705,0.53,0.531,0.548,0.626,0.395,0.167,0.254,0.224,0.28,0.236,0.171,0.995,0.818,0.949,0.536,0.229
HOP-62,0.945,1.42,1.06,0.925,0.531,0.412,0.435,0.392,0.351,0.18,0.409,0.44,0.45,0.195,0.162,0.951,1.03,0.812,0.618,0.288
NCI-H322M,0.553,0.574,0.506,0.604,0.45,0.546,0.534,0.542,0.525,0.502,0.499,0.533,0.495,0.546,0.516,1.03,0.961,0.98,0.809,0.651

Cell Line,relative viability ([1]; first compound 0.02 µM),relative viability ([1]; first compound 0.06325 µM),relative viability ([1]; first compound 0.2 µM),relative viability ([1]; first compound 0.6325 µM),relative viability ([1]; first compound 2 µM),relative viability (Entinostat + Trametinib; first compound 0.02 µM),relative viability (Entinostat + Trametinib; first compound 0.06325 µM),relative viability (Entinostat + Trametinib; first compound 0.2 µM),relative viability (Entinostat + Trametinib; first compound 0.6325 µM),relative viability (Entinostat + Trametinib; first compound 2 µM),relative viability (Entinostat + Palbociclib; first compound 0.02 µM),relative viability (Entinostat + Palbociclib; first compound 0.06325 µM),relative viability (Entinostat + Palbociclib; first compound 0.2 µM),relative viability (Entinostat + Palbociclib; first compound 0.6325 µM),relative viability (Entinostat + Palbociclib; first compound 2 µM),relative viability (Entinostat + Crizotinib; first compound 0.02 µM),relative viability (Entinostat + Crizotinib; first compound 0.06325 µM),relative viability (Entinostat + Crizotinib; first compound 0.2 µM),relative viability (Entinostat + Crizotinib; first compound 0.6325 µM),relative viability (Entinostat + Crizotinib; first compound 2 µM)
NCI-H650,0.913,0.915,0.891,1.02,0.517,1.06,1,0.917,0.708,0.487,0.412,0.349,0.361,0.257,0.167,0.673,0.564,0.586,0.473,0.222
NCI-H661,0.53,0.554,0.525,0.351,0.406,0.62,0.605,0.715,0.536,0.363,0.411,0.464,0.429,0.391,0.355,0.907,0.909,1.01,0.834,0.633
NCI-H1734,1.18,1.09,0.935,0.902,0.558,0.707,0.711,0.759,0.6,0.477,0.385,0.375,0.402,0.347,0.256,0.622,0.709,0.894,0.555,0.423
EKVX,0.189,0.181,0.221,0.215,0.207,0.364,0.344,0.261,0.252,0.227,0.467,0.434,0.343,0.326,0.242,0.81,0.977,1.03,0.819,0.432
NCI-H520,0.874,1.03,0.897,0.852,0.441,0.698,0.906,0.604,0.698,0.355,0.195,0.237,0.32,0.355,0.236,0.735,0.613,0.779,0.413,0.251
LOU-NH91,0.764,0.826,0.725,0.769,0.715,0.777,0.771,0.804,0.739,0.674,0.466,0.581,0.532,0.531,0.508,0.705,0.754,0.757,0.742,0.678
COR-L23,0.946,1.26,1.15,1.24,0.451,0.507,0.614,0.544,0.318,0.189,0.31,0.249,0.253,0.139,0.0938,0.508,0.524,0.513,0.205,0.0924
NCI-H1437,0.801,0.952,0.746,0.794,0.327,0.406,0.31,0.276,0.276,0.221,0.236,0.182,0.204,0.178,0.122,0.801,0.641,0.469,0.174,0.109
EPLC-272H,0.886,1.02,0.674,0.825,0.53,0.351,0.342,0.319,0.27,0.182,0.406,0.334,0.364,0.282,0.215,0.924,0.872,0.933,0.61,0.322
NCI-H1666,0.708,0.598,0.56,0.648,0.434,0.817,0.883,0.763,0.611,0.572,0.672,0.684,0.697,0.65,0.565,0.973,1.16,0.843,0.404,0.321
HCC-44,1.1,1.07,1.09,1.06,0.631,1.07,0.895,0.81,0.735,0.625,1.01,0.833,0.903,0.84,0.826,0.773,0.614,0.453,0.339,0.22
RERF-LC-KJ,0.976,0.922,0.844,0.769,0.65,0.915,0.833,0.726,0.418,0.323,1.06,1.09,1,0.584,0.278,0.844,0.75,0.754,0.431,0.233
LU99A,1.1,1.04,0.92,0.64,0.35,0.599,0.615,0.504,0.471,0.378,0.419,0.416,0.376,0.388,0.302,0.537,0.592,0.565,0.38,0.267
PC-3 [JPC-3],0.444,0.459,0.438,0.476,0.398,0.726,0.642,0.579,0.51,0.502,0.529,0.47,0.486,0.442,0.378,0.965,1.01,0.79,0.658,0.44
NCI-H2126,0.729,0.754,0.722,0.776,0.67,0.592,0.506,0.525,0.347,0.312,0.316,0.317,0.351,0.321,0.334,1.01,1.06,0.954,0.89,0.58
LXF-289,0.939,0.97,0.99,0.9,0.696,0.642,0.653,0.652,0.408,0.453,0.577,0.606,0.575,0.509,0.514,0.789,0.806,0.788,0.669,0.331
